Assay results published in patent publication US9233989B2, “Sila analogs of oxazolidinone derivatives and synthesis thereof” (Council of Scientific & Industrial Research, priority 2011, dated 2016).
In brackets after ≈: the same amount, converted by molar mass.

Legend:
[1] = system: MRSA DB 00026; test: MIC by microbroth dilution method; assay type: cell-based, S. aureus
[2] = system: E.faecium ATCC 3567; test: MIC by microbroth dilution method; assay type: cell-based
[3] = system: S.epidermidis ATCC 14990; test: MIC by microbroth dilution method; assay type: cell-based
[4] = system: E.faecium ATCC 49224; test: MIC by microbroth dilution method; assay type: cell-based
[5] = system: E.faecalis ATCC 51299(VRE&HLAR); test: MIC by microbroth dilution method; assay type: cell-based
[6] = system: MRSA 0-2657; test: MIC by microbroth dilution method; assay type: cell-based, S. aureus
[7] = system: E.faecium ATCC 35667; test: MIC by microbroth dilution method; assay type: cell-based
[8] = system: MRSA ATCC 43300; test: MIC by microbroth dilution method; assay type: cell-based, S. aureus
[9] = system: E.faecium 6A VRE; test: MIC by microbroth dilution method; assay type: cell-based
[10] = system: S.aureus 13709 LNZ mutant; assay type: cell-based
[11] = system: S.epidermis St 358; test: MIC by microbroth dilution method; assay type: cell-based, S. epidermidis
[12] = system: E.faecalis SP 346 VRE; test: MIC by microbroth dilution method; assay type: cell-based
[13] = system: E.faecalis ATCC 29212; test: MIC by microbroth dilution method; assay type: cell-based
[14] = system: S.aureus ATCC 49775 PVL + ve; assay type: cell-based
[15] = system: S.aureus ATCC Newman 25904; test: MIC by microbroth dilution method; assay type: cell-based
[16] = system: S.aureus ATCC 13709 Smith; test: MIC by microbroth dilution method; assay type: cell-based
[17] = system: E.faecium ATCC 19434; test: MIC by microbroth dilution method; assay type: cell-based
[18] = system: S.aureus2 (PVL + ve); assay type: cell-based, S. aureus
[19] = system: MRSE ATCC 35984; test: MIC by microbroth dilution method; assay type: cell-based, S. epidermidis
[20] = system: E.faecium 06076 VRE; test: MIC by microbroth dilution method; assay type: cell-based
[21] = system: Mycobacterium tuberculosis H37Rv; test: Anti-TB activity, colorimetric resazurin microtiter assay; assay type: cell-based; details: Mycobacterium tuberculosis, H37RV, read-out: MIC, Minimum Inhibitory Concentration (90%)
[22] = system: MRSA 252 BAA 1720; test: MIC by microbroth dilution method; assay type: cell-based, S. aureus
[23] = system: MRSA ATCC BAA 39; test: MIC by microbroth dilution method; assay type: cell-based, S. aureus
[24] = system: S.aureus DB00026; test: MIC by microbroth dilution method; assay type: cell-based
[25] = system: E.faecalis ATCC 19433; test: MIC by microbroth dilution method; assay type: cell-based
[26] = system: MRSA 562; test: MIC by microbroth dilution method; assay type: cell-based, S. aureus
[27] = system: S.epidermidis ATCC 12228; test: MIC by microbroth dilution method; assay type: cell-based
[28] = system: MRSE ATCC 35983; test: MIC by microbroth dilution method; assay type: cell-based, S. epidermidis
[29] = system: E.faecium 134 VRE; test: MIC by microbroth dilution method; assay type: cell-based
[30] = system: S.aureus ATCC 700699 Mu50; test: MIC by microbroth dilution method; assay type: cell-based
[31] = system: S.aureus ATCC 29213; test: MIC by microbroth dilution method; assay type: cell-based
[32] = system: E.coli 7632; test: MIC by microbroth dilution method; assay type: cell-based

Row | SMILES | MIC [1] [mg/L] | MIC [2] [mg/L] | MIC [3] [mg/L] | MIC [5] [mg/L] | MIC [6] [mg/L] | MIC [9] [mg/L] | MIC [10] [mg/L] | MIC [11] [mg/L] | MIC [12] [mg/L] | MIC [13] [mg/L] | MIC [14] [mg/L] | MIC [16] [mg/L] | MIC [17] [mg/L] | MIC [19] [mg/L] | MIC [20] [mg/L] | MIC [23] [mg/L] | MIC [25] [mg/L] | MIC [26] [mg/L] | MIC [28] [mg/L] | MIC [29] [mg/L] | also measured
1 | C[Si]1(C)CCN(c2ccc(N3C[C@H](Cn4ccnn4)OC3=O)cc2F)CC1 [NDS-10060, (R)-5-((1H-1,2,3-triazol-1-yl)methyl)-3-(4-(4,4-dimethyl-1,4-azasilinan-1-yl)-3-fluorophenyl)oxazolidin-2-one] | 16 (≈ 41.1 µM) | > 32 | 8 (≈ 20.5 µM) | 16 (≈ 41.1 µM) | 16 (≈ 41.1 µM) | 32 (≈ 82.2 µM) | 32 (≈ 82.2 µM) | 16 (≈ 41.1 µM) | 16 (≈ 41.1 µM) | 8 (≈ 20.5 µM) | 16 (≈ 41.1 µM) | 16 (≈ 41.1 µM) | 32 (≈ 82.2 µM) | 16 (≈ 41.1 µM) | 32 (≈ 82.2 µM) | 16 (≈ 41.1 µM) | 16 (≈ 41.1 µM) | 16 (≈ 41.1 µM) | 32 (≈ 82.2 µM) | 16 (≈ 41.1 µM) | MIC [4]: 32 mg/L (≈ 82.2 µM); MIC [7]: 32 mg/L (≈ 82.2 µM); MIC [8]: 32 mg/L (≈ 82.2 µM); MIC [15]: 16 mg/L (≈ 41.1 µM); MIC [18]: 16 mg/L (≈ 41.1 µM); MIC [21]: 50 mg/L (≈ 128 µM); MIC [22]: 32 mg/L (≈ 82.2 µM); MIC [24]: 16 mg/L (≈ 41.1 µM); MIC [27]: > 32 mg/L; MIC [30]: 32 mg/L (≈ 82.2 µM); MIC [31]: 32 mg/L (≈ 82.2 µM); MIC [32]: 16 mg/L (≈ 41.1 µM)
2 | C[Si]1(c2ccccc2)CCN(c2c(F)cc(N3C[C@H](CN)OC3=O)cc2F)CC1 [NDS-10070, (S)-5-(aminomethyl)-3-(3,5-difluoro-4-(4-methyl-4-phenyl-1,4-azasilinan-1-yl)phenyl)oxazolidin-2-one] | > 32 | > 32 | > 32 | 32 (≈ 76.6 µM) | > 32 | > 32 | > 32 | > 32 | > 32 | 32 (≈ 76.6 µM) | > 32 | > 32 | 32 (≈ 76.6 µM) | 32 (≈ 76.6 µM) | > 32 | > 32 | 32 (≈ 76.6 µM) | 32 (≈ 76.6 µM) | > 32 | > 32 | MIC [4]: 32 mg/L (≈ 76.6 µM); MIC [7]: 32 mg/L (≈ 76.6 µM); MIC [8]: > 32 mg/L; MIC [15]: > 32 mg/L; MIC [18]: > 32 mg/L; MIC [21]: 50 mg/L (≈ 120 µM); MIC [22]: > 32 mg/L; MIC [24]: > 32 mg/L; MIC [27]: > 32 mg/L; MIC [30]: > 32 mg/L; MIC [31]: > 32 mg/L; MIC [32]: 32 mg/L (≈ 76.6 µM)
3 | CC(C)(C)OC(=O)NC[C@H]1CN(c2cc(F)c(N3CC[Si](C)(C)CC3)c(F)c2)C(=O)O1 [NDS-10031, (S)-tert-butyl((3-(4-(4,4-dimethyl-1,4-azasilinan-1-yl)-3,5-difluorophenyl)-2-oxooxazolidin-5-yl)methyl)carbamate] | > 16 | > 16 | > 16 | > 16 | > 16 | > 16 | > 16 | > 16 | > 16 | > 16 | > 16 | > 16 | > 16 | > 16 | > 16 | > 16 | > 16 | > 16 | > 16 | > 16 | MIC [27]: > 16 mg/L; MIC [30]: > 16 mg/L; MIC [31]: > 16 mg/L; MIC [32]: > 32 mg/L
4 | C[Si]1(C)CCN(c2c(F)cc(N3C[C@H](CN)OC3=O)cc2F)CC1 [NDS-10054, (S)-5-(aminomethyl)-3-(4-(4,4-dimethyl-1,4-azasilinan-1-yl)-3,5-difluorophenyl)oxazolidin-2-one] | 16 (≈ 45 µM) | 8 (≈ 22.5 µM) | 16 (≈ 45 µM) | 16 (≈ 45 µM) | 16 (≈ 45 µM) | 8 (≈ 22.5 µM) | 32 (≈ 90 µM) | 16 (≈ 45 µM) | 16 (≈ 45 µM) | 16 (≈ 45 µM) | 16 (≈ 45 µM) | 16 (≈ 45 µM) | 16 (≈ 45 µM) | 16 (≈ 45 µM) | 16 (≈ 45 µM) | 16 (≈ 45 µM) | 16 (≈ 45 µM) | 16 (≈ 45 µM) | 32 (≈ 90 µM) | 16 (≈ 45 µM) | MIC [4]: 16 mg/L (≈ 45 µM); MIC [7]: 8 mg/L (≈ 22.5 µM); MIC [8]: 16 mg/L (≈ 45 µM); MIC [15]: 16 mg/L (≈ 45 µM); MIC [18]: 16 mg/L (≈ 45 µM); MIC [21]: 25 mg/L (≈ 70.3 µM); MIC [22]: 16 mg/L (≈ 45 µM); MIC [24]: 16 mg/L (≈ 45 µM); MIC [27]: 32 mg/L (≈ 90 µM); MIC [30]: 16 mg/L (≈ 45 µM); MIC [31]: 16 mg/L (≈ 45 µM); MIC [32]: > 32 mg/L
5 | CC(=O)NC[C@H]1CN(c2ccc(N3CCOCC3)c(F)c2)C(=O)O1 [Linezolid, (S)—N-({3-[3-fluoro-4-(morpholin-4-yl)phenyl]-2-oxo-1,3-oxazolidin-5-yl}methyl)acetamide, reference compound] | 2 (≈ 5.93 µM) | 2 (≈ 5.93 µM) | 2 (≈ 5.93 µM) | 1 (≈ 2.96 µM) | 1 (≈ 2.96 µM) | 2 (≈ 5.93 µM) | 2 (≈ 5.93 µM) | 2 (≈ 5.93 µM) | 2 (≈ 5.93 µM) | 0.5 (≈ 1.48 µM) | 2 (≈ 5.93 µM) | 2 (≈ 5.93 µM) | 2 (≈ 5.93 µM) | 1 (≈ 2.96 µM) | 2 (≈ 5.93 µM) | 2 (≈ 5.93 µM) | 1 (≈ 2.96 µM) | 2 (≈ 5.93 µM) | 1 (≈ 2.96 µM) | 2 (≈ 5.93 µM) | MIC [4]: 2 mg/L (≈ 5.93 µM); MIC [7]: 4 mg/L (≈ 11.9 µM); MIC [8]: 4 mg/L (≈ 11.9 µM); MIC [15]: 2 mg/L (≈ 5.93 µM); MIC [18]: 2 mg/L (≈ 5.93 µM); MIC [22]: 1 mg/L (≈ 2.96 µM); MIC [24]: 1 mg/L (≈ 2.96 µM); MIC [30]: 2 mg/L (≈ 5.93 µM); MIC [31]: 2 mg/L (≈ 5.93 µM); MIC [32]: 1 mg/L (≈ 2.96 µM)
